Reference: US6284734A, “Inhibitors against prostate-specific antigen” (JCR Pharmaceuticals Co., Ltd., priority 1997, dated 2001)
No end group written: not given here.

Legend:
PSA [1] = target: T1, PSA (Homo sapiens, UniProt P07288); assay: PSA activity assay with Pro-Phe-Arg-MCA substrate, residual activity in coexistence of peptides; format: biochemical; conditions: enzyme added PSA, 100% without any Peptide
T1 construct: Using PSA as purified from human urine or seminal plasma; from tissue; host or cells: human urine or seminal plasma
T1 sequence (P07288 25-261): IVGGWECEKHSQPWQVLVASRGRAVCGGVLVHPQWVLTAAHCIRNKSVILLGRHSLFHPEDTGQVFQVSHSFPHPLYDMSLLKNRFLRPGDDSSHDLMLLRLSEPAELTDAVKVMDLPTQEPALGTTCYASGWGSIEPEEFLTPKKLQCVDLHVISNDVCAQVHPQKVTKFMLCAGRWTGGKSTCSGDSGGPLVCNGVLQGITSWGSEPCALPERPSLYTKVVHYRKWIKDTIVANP
Protocol: Then, investigation was conducted into whether or not these peptides act to inhibit the PSA activity.
While using […] of 100 μM or 10 μM Pro-Phe-Arg-MCA (supplied by Peptide Research. Institute of Japan) as a substrate, 0.1 ml of 100 μM of each of Peptides 1 to 5 was mixed with the substrate and 0.7 ml of 0.1M Tris-hydrochloride buffer (pH 8.0) to allow the reaction to proceed at 37° C. for 5 min, followed by addition of 0.1 ml of 0.12 mg/ml PSA solution. The reaction solution was subjected to time-course measurement of fluorescence intensity (Ex380 nm, Em460nm) at 37° C. for 3 min, and the inhibitory activity value was determined from a slope of the straight line. […] In the above experiments, Pro-Phe-Arg-MCA, Peptides 1 to 5 PSA and kallikrein were used after being dissolved in 0.1M Tris-hydrochloride buffer (pH 8.0).
These findings are in good agreement with the fact that PSA a protease belonging to the kallikrein family .

PSA [2] = target: T1, PSA; assay: Degradation of r-IGFBP3 by PSA, SDS electrophoresis and Western blotting with densitometry; format: biochemical; conditions: relative to r-IGFBP3 alone (100.0); r-IGFBP3 + PSA 50.0; 4 nmol Peptide 4
Protocol: And PSA degrades r-IGFB3 into fragments, whereby its degradation process can be confirmed by means of SDS-electrophoresis and Western blotting.
A specimen was prepared by dissolving 0.57 μg of PSA and 2.0 μg of r-IGFBP3 (manufactured by Upstate Co. of USA) in 0.1M Tris-hydrochloride buffer (pH 8.0), followed by reaction at 37° C. for 16 hrs, while another specimen was prepared by dissolving 0.57 μg of PSA, 2.0 μg of r-TGFBP3 (manufactured by Upstate Co. of USA) and 4 nmol of Peptide 4 in 0.1M Tris-hydrochloride buffer (pH 8.0), followed by reaction at 37° C. for 16 hrs. Each of the specimens was subjected to a 4 to 20% gradient gel to conduct SDS electrophoresis under non-reduction in the conditions described by Laemmli et al. (Iqature, 227: 680-685, 1970). After electrophoresis, separated proteins were transferred to a nitrocellulose membrane to carry out Western blotting using anti-IGFBP3 antibody (produced by Biogenesis Co. of USA) as a primary antibody and anti-rabbit antibody (produced by Promega Co. of USA) labeled with horseradish peroxidase (HRP) as a secondary antibody. The HRP activity was detected by chemiluminescence (Renaissance Western Blot Chemiluminescence Reagent, NEN™ produced by Life Science Products Co. of USA), and the protein bands as detected were quantitatively determined by use of a densitometer.

[3] = column A, Substrate:Peptide molar ratio 1:1
[4] = column B, Substrate:Peptide molar ratio 1:10

Row | Residual activity rate (%) after addition of Peptides (PSA [1]; [3]) | Residual activity rate (%) after addition of Peptides (PSA [1]; [4]) | Residual rate % of the 50 kDa band (PSA [2]) | Sequence
1 | 66.5% | 46.6% | 65.1% | GFYKKKQSR [Peptide 4, Gly(217)-Phe-Tyr-Lys-Lys-Lys-Gln-Ser-Arg(225)]
2 | 83.5% | 73.3% | – | LNHLKFLNVL [Peptide 3, Leu(194)-Asn-His-Leu-Lys-Phe-Leu-Asn-val-Leu(203)]
3 | 75.1% | 84.8% | – | PSKGRKRGFM [Peptide 5, Pro(226)-Ser-Lys-Gly-Arg-Lys-Arg-Gly-Phe-Met(235)]
4 | 107.4% | 100.7% | – | VNASAVSRLRAYLLP [Peptide 1, val(88)-Asn-Ala-Ser-Ala-Val-Ser-Arg-Leu-Arg-Ala-Tyr-Leu-Leu-Pro(102)]
5 | 87.5% | 104.8% | – | VSSTHRVSDPKF [Peptide 2, Val(127)-Ser-Ser-Thr-His-Arg-Val-Ser-Asp-Pro-Lys-Phe(138)]
